Consider two substances from patent publication US12589143B2, “Human anti-PD-L1 peptide vaccines and methods of their use” (priority 2019, dated 2026).

One experiment concerns the target T1, PD-1/PD-L1 interaction (Homo sapiens, UniProt Q9NZQ7).
T1 construct: host or cells: PD-L1 aAPC/CHO-K1 cells and PD-1 effector cells
As to the kind of experiment: PD-1/PD-L1 blockade bioassay (Promega). In kind it is cell-based. Particulars: antibodies from immunized rabbits, compared to Nivolumab and Atezolizumab. The protocol: The assay was performed following the manufacturer's protocol for the PD-1/PD-L1 blockade bioassay (Promega).
The bioluminescent cell-based PD-1/PD-L1 blockade bioassays provide a good option for rapid screening of therapeutic antibodies or other compounds developed to interfere with PD-1-signaling interaction. PD1/PD-L1 blockade assay was used to test the functionality of 3 anti-PD-L1 antibodies. It was observed that purified polyclonal anti-PD-L1 antibody from the rabbits was able to block PD1/PD-L1 interaction similar to commercial anti-human PD-L1 antibody (FIG. 12). […] In FIG. 12, we show the capacity of each of the PD-L1 vaccines to block the PD-1:PD-L1 interaction as compared to Nivolumab and Atezolizumab. Remarkably only PD-L1 130-147 antibodies were effective
The assay was performed following the manufacturer's protocol for the PD-1/PD-L1 blockade bioassay (Promega). In brief, 4×10^5 aAPC/CHO-K1 or PD-L1 aAPC/CHO-K1 cells were seeded into 96-well plates in RPMI-1640 with 10% FBS. After overnight culturing, the medium was aspirated, and serially diluted purified PD-L1 or PD-1 antibodies, as well as Nivolumab and Atezolizumab antibodies (as reference antibodies) were added. Next, PD-1 effector cells were co-cultured and plate was kept for 5 h at 37° C. in a humidified 5% CO2 incubator. Following mixing with Bio-Glo Reagent, the luminescence was measured with a luminescence plate reader, SpectraMax M3 plate reader (Molecular Devices).

The subject of another experiment is D2F2 WT tumor cells. As to the kind of experiment: D2F2 WT tumor challenge in Balb/c mice. In kind it is in vivo. Particulars: day 21 and day 28. The protocol:
Balb/c mice 6-8 weeks old, were immunized with G1 and G2 mice were treated with anti-PD-1 mAb (29F.1A12) (G1) or anti-PD-L1 mAb (10F.9G2) (G2 or with MVF-PD-L1 vaccine constructs [PD-L1(92-110)(G3) PD-L1(130-147)(G4)] prior to tumor challenge. Similarly, G10, G11 and G12 are control groups and were not treated prior to tumor cell challenge. G13, G14 and G15 mice were immunized with 100 ug MVF-HER-2(266-296)+100 ug MVF-HER-2(597-626)+ISA720 per mouse for G13, 100 ug MVF-PD-1 (92-110)+100 ug MVF-HER-2(266-296)+100 ug MVF-HER-2(597-626)+ISA720 per mouse for G14 and 100 ug MVF-PD-L1 (130-147)+100 ug MVF-HER-2(266-296)+100 ug MVF-HER-2(597-626)+ISA720 per mouse for G15. The mice were immunized up to 4 times before tumor challenge. […] All the mice had been monitored at least twice per week, and the tumors were measured with calipers as data indicated.
The tumor volumes were measured by calipers and calculated by formula: (length×width2)/2. […] All the peptides immunized groups of mice are shown with less tumor burden than PBS group and mAbs treated groups as well.
G0, G1 and G2 are control groups, mice in these groups were not treated before tumor cells challenge. Following challenge with D2F2 WT tumor cells, G0 mice were treated with PBS (i.p.) twice per week start from day 2 post challenge served as negative control, G1 and G2 mice were treated with anti-PD-1 mAb (29F.1A12) or anti-PD-L1 mAb (10F.9G2), respectively. Treatment for G1 and G2 mouse groups was also started from day 2 post tumor challenge, with 100 ug administered/mouse twice a week. G1 and G2 served as positive control. […] All the mice had been monitored at least twice per week, and the tumors were measured with calipers as data indicated (FIG. 26).
Mice were immunized with designed peptides vaccines as descripted in FIG. 26, which indicated as 1Y, 2Y, 3Y and 4Y here and with 3 weeks apart. […] And the mice were monitor at least twice per week, and the tumors were measured as shown in the data figures.
The tumor volumes were measured by calipers and calculated by formula: (length×width2)/2. […]

The subject of experiment [1] is HER-2 positive breast cancer. Particulars: patients with untreated HER-2 positive breast cancer; pertuzumab added to docetaxel and trastuzumab vs without; cited from earlier work.

Where no end group is shown, it is not given here.

T1 sequence (Q9NZQ7 19-290): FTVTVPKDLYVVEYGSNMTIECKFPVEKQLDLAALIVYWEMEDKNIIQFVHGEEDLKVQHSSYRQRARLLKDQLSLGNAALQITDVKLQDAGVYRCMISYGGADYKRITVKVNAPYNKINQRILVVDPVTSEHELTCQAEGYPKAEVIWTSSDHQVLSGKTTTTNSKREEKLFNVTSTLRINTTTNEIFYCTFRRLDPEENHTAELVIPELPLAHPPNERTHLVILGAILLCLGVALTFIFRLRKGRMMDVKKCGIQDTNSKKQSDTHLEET

With “MVF-PD-1(92-110) (KLLSLIKGVIVHRLEGVEDCRFRVTQLPNGRDFHMSV-NH2)”, in the experiment with PD-1/PD-L1 interaction, the “blocking of PD-1/PD-L1 interaction” value was “unable to block PD-1 and PD-L1”. The tumor volume result with D2F2 WT tumor cells was “smaller tumor volume than PBS negative control group and both of mAbs positive control groups”.

pertuzumab: in experiment [1], the overall survival was 56.5 months and the progression-free survival was 18.5 months.
